Measurements as given in patent US11147819B2, “EZH2 inhibitors for treating cancer” (Epizyme, Inc., priority 2016, dated 2021).

B1: CD40L: recombinant CD40L, a B-cell co-stimulatory molecule (protein, UniProt P29965 113-261, looked up)
CD40 ligand, soluble form: MQKGDQNPQIAAHVISEASSKTTSVLQWAEKGYYTMSNNLVTLENGKQLTVKRQGLYYIYAQVTFCSNREASSQAPFIASLCLKSPGRFERILLRAANTHSSAKPCGQQSIHLGGVFELQPGASVFVNVTDPSQVSHGTGFTSFGLLKL

Columns and labels:
TMD8 = test: Combination study with tazemetostat (synergy by IC50 shifts or Calcusyn); format: cell-based; settings: TMD8 (ABC)
Protocol: (§1) Synergy was assessed by IC50 shifts or Calcusyn. [table]

SU-DHL5 = test: as above; format: cell-based; settings: SU-DHL-5 (EZH2 wt)
Protocol: as §1

KARPAS-422 = test: as above; format: cell-based; settings: KARPAS-422 (EZH2 mutant)
Protocol: as §1

Cells = test: Apoptosis, single agents or combination, 10 days (FIG. 6B); format: cell-based
Protocol: (§2) FIG. 6. A) Cells were treated for 7 days with single agents or in combination. […] This effect is not seen in the ABC cell line, TMD8. B) Cells were treated for 10 days with single agents (100 ng/mL CD40L) or in combination.

DLBCL cell lines = test: RNAseq GSEA for plasma and memory cell gene sets; format: cell-based; settings: 1 μM TAZ for 4 days; KARPAS-422, SU-DHL-6, Farage, SU-DHL-5, TMD8, Toledo
Protocol: FIG. 3. […] RNAseq data from KARPAS-422 (EZH2 mutant GCB), SU-DHL-6 (EZH2 mutant GCB) Farage (EZH2 wt GCB), SU-DHL-5 (EZH2 wt GCB), TMD8 (EZH2 wt ABC) and Toledo (EZH2 wt ABC) treated with 1 μM TAZ for 4 days was analyzed using GSEA (Broad Institute) for the presence of plasma and memory cell gene sets.

[1] = test system: PRDM1 (BLIMP1) in GCB lines; test: PRDM1 (BLIMP1) expression by qPCR or western blot; format: cell-based; settings: all GCB lines; 7 days with 1 μM TAZ vs DMSO
Protocol: (§3) FIG. 4. Cells were treated for 7 days with 1 μM TAZ or DMSO.

PRDM1 (BLIMP1) in TMD8 = test: PRDM1 (BLIMP1) expression by qPCR or western blot; format: cell-based; settings: ABC cell line TMD8; 7 days with 1 μM TAZ vs DMSO
Protocol: as §3

B-cell lymphomas = settings: phase I; patients with B-cell lymphomas; cited from earlier work
[2] = test system: SU-DHL-5 cell line xenograft; test: Cell line xenograft model, tumor growth; format: in vivo; settings: SU-DHL-5 xenograft model
From the text: (§4) FIG. 1. A) 14 evaluable NHL patients treated (V. Ribrag ASH 2015): 13 WT+1 mutant by cobas® EZH2 Mutation Test (in development, Roche Molecular Systems, Inc.)*Cheson Criteria. B) EZH2 mutant cell lines are more sensitive to TAZ in vitro. […] Cell of origin of cell lines determined by RNAseq analysis (Scott et al. Blood 2014).

[3] = test system: OCI-LY19 cell line xenograft; test: Cell line xenograft model, tumor growth; format: in vivo
From the text: as §4

Oral bioavailability = settings: in vivo
IκBα in SU-DHL-5 cells = test: IκBα degradation in response to CD40L (FIG. 7B); format: cell-based; settings: 4-day treatment, CD40L 500 ng/mL
GCB lines = test: Combination of CD40L with TAZ (FIG. 5); format: cell-based
[4] = test system: PRDM1 in SU-DHL-5 (wt EZH2); test: PRDM1 expression after co-treatment with TAZ and CD40L (FIG. 7A); format: cell-based; settings: 14-day co-treatment
[5] = test system: H3K27 trimethylation in KARPAS-422; test: H3K27 trimethylation inhibition (FIG. 6C); format: cell-based; settings: KARPAS-422, mutant EZH2 cell line
Protocol: as §2

Molecule | Combination effect with TAZ (FIG. 5) (TMD8) | Combination effect with TAZ (FIG. 5) (SU-DHL5) | Combination effect with TAZ (FIG. 5) (KARPAS-422) | apoptosis, single agent compared to DMSO (Cells) | plasma cell and memory cell gene sets (RNAseq, GSEA) (DLBCL cell lines) | PRDM1 (BLIMP1) expression [1] | PRDM1 (BLIMP1) expression (PRDM1 (BLIMP1) in TMD8) | clinical response (B-cell lymphomas) | tumor growth in response to TAZ treatment [2] | tumor growth in response to TAZ treatment [3] | oral bioavailability (Oral bioavailability) | IκBα degradation in response to CD40L (IκBα in SU-DHL-5 cells) | apoptosis, combination with TAZ compared to TAZ single agent (Cells; 100 ng/mL CD40L) | Combination effect with TAZ (FIG. 5) (GCB lines) | PRDM1 expression, co-treatment with TAZ [4] | effect on TAZ inhibition of H3K27 trimethylation [5]
COc1cc(Nc2ncc(F)c(Nc3ccc4c(n3)NC(=O)C(C)(C)O4)n2)cc(OC)c1OC [Tamatinib] | Synergy | Synergy | Synergy |  |  |  |  |  |  |  |  |  |  |  |  | 
CCN(c1cc(-c2ccc(CN3CCOCC3)cc2)cc(C(=O)NCc2c(C)cc(C)[nH]c2=O)c1C)C1CCOCC1 [tazemetostat] |  |  |  | significant increase of apoptosis | induces a gene set that is heavily enriched for plasma cell and memory cell genes | increase | slight decrease | objective clinical responses | tumor growth inhibition | tumor growth inhibition | orally bioavailable | does not affect |  |  |  | 
B1 | slight synergy |  |  |  |  |  |  |  |  |  |  |  | significant decrease of apoptosis | antagonism | up-regulation of PRDM1 | does not affect
